Reference: patent US10294202B2, “Pyrrolidinones as herbicides” (FMC Corporation, priority 2013, dated 2019)

Experiments:
nightshade = assay: Test E preemergence herbicide test; type: in vivo, Solanum ptycanthum; design: key: 0 = no effect, 100 = complete control
Excerpt: Seeds of plant species selected from corn (Zea mays), soybean (Glycine max), velvetleaf (Abutilon theophrasti), lambsquarters (Chenopodium album), wild poinsettia (Euphorbia heterophylla), pigweed, palmer (palmer pigweed, Amaranthus palmeri), waterhemp (common waterhemp, Amaranthus rudis), surinam grass (Brachiaria decumbens), crabgrass, large (large crabgrass, Digitaria sanguinalis), crabgrass, Brazil (Brazilian crabgrass, Digitaria horizontalis), panicum, fall (fall panicum, Panicum dichotomiflorum), foxtail, giant (giant foxtail, Setaria faberii), foxtail, green (green foxtail, Setaria viridis), goosegrass (Eleusine indica), johnsongrass (Sorghum halepense), ragweed (common ragweed, Ambrosia elatior), barnyardgrass (Echinochloa crus-galli), sandbur (southern sandbur, Cenchrus echinatus), arrowleaf […] rhombifolia), ryegrass, Italian (Italian ryegrass, Lolium multiflorum), dayflower, VA (Virginia dayflower, Commelina virginica), field bindweed (Convolvulus arvensis), morningglory (Ipomoea coccinea), nightshade (eastern black nightshade, Solanum ptycanthum), kochia (Kochia scoparia), nutsedge, yellow (yellow nutsedge, Cyperus esculentus), cocklebur (common cocklebur, Xanthium strumarium), smartweed (ladysthumb smartweed, Polygonum Persicaria) and beggarticks (hairy beggarticks, Bidens pilosa), were planted into a silt loam soil and treated preemergence with test chemicals formulated in a non-phytotoxic solvent mixture which included a surfactant. Treated plants and controls were maintained in a greenhouse for 21 days, after which time all species were compared to controls and visually evaluated. Plant response ratings, summarized in Table E, are based on a scale of 0 to 100 where 0 is no effect and 100 is complete control. A dash (-) response means no test result.

cocklebur = assay: Test C pre-/postemergence herbicide test; type: in vivo, Xanthium strumarium
Excerpt: Seeds of plant species selected from blackgrass (Alopecurus myosuroides), ryegrass, Italian (Italian ryegrass, Lolium multiflorum), wheat (winter wheat, Triticum aestivum), galium (catchweed bedstraw, Galium aparine), corn (Zea mays), crabgrass, large (large crabgrass, Digitaria sanguinalis), foxtail, giant (giant foxtail, Setaria faberii), johnsongrass (Sorghum halepense), lambsquarters (Chenopodium album), morningglory (Ipomoea coccinea), nutsedge, yellow (yellow nutsedge, Cyperus esculentus), pigweed (Amaranthus retroflexus), ragweed (common ragweed, Ambrosia elatior), soybean (Glycine max), barnyardgrass (Echinochloa crus-galli), oilseed rape (Brassica napus), waterhemp (common waterhemp, Amaranthus rudis), kochia (Kochia scoparia), oat, wild (wild oat, Avena fatua), surinam grass (Brachiaria decumbens), foxtail, green (green foxtail, Setaria viridis), goosegrass (Eleusine indica), bromegrass, downy (downy bromegrass, Bromus tectorum), nightshade (eastern black nightshade, Solanum ptycanthum), cocklebur (common cocklebur, Xanthium strumarium), cupgrass, woolly (woolly cupgrass, Eriochloa villosa), bermudagrass (Cynodon dactylon), sunflower, (common oilseed sunflower, Helianthus annuus), Russian thistle (Salsola kali) and velvetleaf (Abutilon theophrasti) were planted into a blend of loam soil and sand and treated preemergence with test chemicals formulated in a non-phytotoxic solvent mixture which included a surfactant. At the same time, plants selected from these crop and weed species and also barley (winter barley, Hordeum vulgare), […]), chickweed (common chickweed, Stellaria media), deadnettle (henbit deadnettle, Lamium amplexicaule), and canarygrass (littleseed canarygrass, Phalaris minor) were planted in pots containing Redi-Earth® planting medium (Scotts Company, 14111 Scottslawn Road, Marysville, Ohio 43041) comprising spaghnum peat moss, vermiculite, wetting agent and starter nutrients and treated with postemergence applications of test chemicals formulated in the same manner. Plants ranged in height from 2 to 18 cm (1- to 4-leaf stage) for postemergence treatments. Treated plants and controls were maintained in a greenhouse for 13 to 15 days, after which time all species were compared to controls and visually evaluated. Plant response ratings, summarized in Table C, are based on a scale of 0 to 100 where 0 is no effect and 100 is complete control. A dash (-) response means no test result.

monochoria = assay: Test F flood (paddy) test; type: in vivo, Monochoria vaginalis; conditions: 21 d, scale 0-100
Excerpt: Three plastic pots (ca. 16-cm diameter) per rate were partially filled with sterilized Tama silt loam soil comprising a 35:50:15 ratio of sand, silt and clay and 2.6% organic matter. Separate plantings for each of the three pots were as follows. Seeds from the U.S. of monochoria (Monochoria vaginalis), sedge, umbrella (small-flower umbrella sedge, Cyperus difformis), bulrush, […] bulrush, Scirpus juncoides), and […] (purple […] coccinea), were planted into one 16-cm pot for each rate. Seeds from the U.S. of flatsedge, rice (rice flatsedge, Cyperus iria), sprangletop, Brdd. (bearded sprangletop, Leptochloa fascicularis), one stand of 9 or 10 water seeded rice seedlings (Rice, W.S. Jap, Oryza sativa cv. 'Japonica-[…]' or Rice, W.S. Ind, 'Indica'), and two stands of 3 or 4 seedlings of rice, transplanted (transplanted rice, Oryza sativa cv. 'Japonica-[…]') were planted into one 16-cm pot for each rate. Seeds from the U.S. of barnyardgrass (Echinochloa crus-galli), […] (common […], Alisma plantago-aquatica), and watergrass, late (late watergrass, Echinochloa oryzicola) were planted into one 16-cm pot for each rate. Plantings were sequential so that crop and weed species were at the 2.0 to 2.5-leaf stage at time of treatment. Potted plants were grown in a greenhouse with day/night temperature settings of 30/27° C., and supplemental balanced lighting was provided to maintain a 16-h photoperiod. Test pots were maintained in the greenhouse until test completion. At time of treatment, test pots were flooded to 3 cm above the soil surface, treated by application of test compounds directly to the paddy water, and then maintained at that water depth for the duration of the test. Effects of treatments on rice and weeds were visually evaluated by comparison to untreated controls after 21 d. Plant response ratings, summarized in Table F, are based on a scale of 0 to 100 where 0 is no effect and 100 is complete control. A dash (-) response means no test result.

[1] = Preemergence, 62 g ai/ha, scale 0 to 100
[2] = Preemergence, 31 g ai/ha, scale 0 to 100 (0 no effect, 100 complete control)
[3] = Preemergence, 250 g ai/ha, scale 0 to 100 (0 no effect, 100 complete control)
[4] = Preemergence, 125 g ai/ha, scale 0 to 100 (0 no effect, 100 complete control)
[5] = Postemergence, 31 g ai/ha, scale 0 (no effect) to 100 (complete control)
[6] = Postemergence, 62 g ai/ha, scale 0 to 100 (0 no effect, 100 complete control)
[7] = Postemergence, 125 g ai/ha, scale 0 to 100 (0 no effect, 100 complete control)
[8] = Postemergence, 250 g ai/ha, scale 0 to 100 (0 no effect, 100 complete control)

O=C1NCC(c2ccc(Cl)c(Cl)c2)C1C(=O)Nc1ccccc1F (racemic) [Compound 14]
Plant response rating, Nightshade (nightshade; 16 g ai/ha): 0 | Plant response rating, Nightshade (nightshade; 31 g ai/ha): 0 | Plant response rating, Nightshade (nightshade; 62 g ai/ha): 30 | Plant response rating, Nightshade (nightshade; 125 g ai/ha): 50 | Plant response rating, Nightshade (nightshade; 250 g ai/ha): 70 | Plant response rating, Cocklebur (cocklebur; [1]): 0 | Cocklebur plant response rating (cocklebur; [2]): 0 | Plant response rating, Cocklebur (cocklebur; [3]): 0

O=C1NCC(c2ccc(F)c(F)c2)C1C(=O)Nc1cccc(F)c1F (racemic) [Compound 101]
Plant response rating, Monochoria (monochoria; 64 g ai/ha): 75 | Plant response rating, Monochoria (monochoria; 125 g ai/ha): 100 | Plant response rating, Monochoria (monochoria; 250 g ai/ha): 100 | Plant response rating, Monochoria (monochoria; 500 g ai/ha): 100

O=C1NCC(c2ccc(C(F)(F)F)cc2)C1C(=O)Nc1cccc(F)c1F (racemic) [Compound 202]
Plant response rating, Nightshade (nightshade; 31 g ai/ha): 0 | Plant response rating, Nightshade (nightshade; 62 g ai/ha): 50 | Plant response rating, Nightshade (nightshade; 125 g ai/ha): 90 | Plant response rating, Nightshade (nightshade; 250 g ai/ha): 80

O=C1NCC(c2cccc(C(F)F)c2)C1C(=O)Nc1ccccc1F (racemic) [Compound 210]
Plant response rating, Monochoria (monochoria; 125 g ai/ha): 65 | Plant response rating, Monochoria (monochoria; 250 g ai/ha): 85 | Plant response rating, Monochoria (monochoria; 500 g ai/ha): 100

O=C1NCC(c2ccc(OC(F)F)cc2)C1C(=O)Nc1cccc(F)c1F (racemic) [Compound 350]
Plant response rating, Nightshade (nightshade; 31 g ai/ha): 0 | Plant response rating, Nightshade (nightshade; 62 g ai/ha): 0 | Plant response rating, Nightshade (nightshade; 125 g ai/ha): 50 | Plant response rating, Nightshade (nightshade; 250 g ai/ha): 80

O=C1NCCC1C(=O)N(c1ccc(F)c(F)c1)c1ccccc1F (stereo not shown) [Compound 5, N-(3,4-difluorophenyl)-N-(2-fluorophenyl)-2-oxo-3-pyrrolidinecarboxamide]
Plant response rating, Monochoria (monochoria; 125 g ai/ha): 75 | Plant response rating, Monochoria (monochoria; 250 g ai/ha): 75 | Plant response rating, Monochoria (monochoria; 500 g ai/ha): 75 | Plant response rating, Monochoria (monochoria; 1000 g ai/ha): 75 | Plant response rating, Monochoria (monochoria; 2000 g ai/ha): 75 | Plant response rating, Cocklebur (cocklebur; [1]): 0 | Plant response rating, Cocklebur (cocklebur; [4]): 0 | Cocklebur plant response rating (cocklebur; [2]): 0 | Plant response rating, Cocklebur (cocklebur; [3]): 0

O=C1NCC(c2cc(F)c(F)c(F)c2)C1C(=O)Nc1cccc(F)c1F (stereo not shown) [Compound 48]
Plant response rating, Cocklebur (cocklebur; Postemergence, 16 g ai/ha, scale 0 to 100 (0 no effect, 100 complete control)): 0 | Plant response rating, Cocklebur (cocklebur; [5]): 5 | Plant response rating, Cocklebur (cocklebur; [6]): 10 | Plant response rating, Cocklebur (cocklebur; [7]): 10 | Plant response rating, Cocklebur (cocklebur; [1]): 0 | Plant response rating, Cocklebur (cocklebur; [4]): 5 | Plant response rating, Cocklebur (cocklebur; Preemergence, 16 g ai/ha, scale 0 to 100): 0 | Cocklebur plant response rating (cocklebur; [2]): 0

O=C1NCC(c2cc(F)c(F)cc2F)C1C(=O)Nc1cccc(F)c1F (stereo not shown) [Compound 50]
Plant response rating, Cocklebur (cocklebur; [5]): 5 | Plant response rating, Cocklebur (cocklebur; [6]): 5 | Plant response rating, Cocklebur (cocklebur; [7]): 5 | Plant response rating, Cocklebur (cocklebur; [8]): 5

O=C1NCC(c2ccc(Cl)c(F)c2)C1C(=O)Nc1cccc(F)c1F (stereo not shown) [Compound 52]
Plant response rating, Cocklebur (cocklebur; [5]): 5 | Plant response rating, Cocklebur (cocklebur; [6]): 5 | Plant response rating, Cocklebur (cocklebur; [7]): 5 | Plant response rating, Cocklebur (cocklebur; [8]): 5 | Plant response rating, Cocklebur (cocklebur; [1]): 0 | Plant response rating, Cocklebur (cocklebur; [4]): 0 | Cocklebur plant response rating (cocklebur; [2]): 0

O=C1NCC(c2ccc(F)c(Cl)c2)C1C(=O)Nc1ccccc1F (stereo not shown) [Compound 60]
Plant response rating, Cocklebur (cocklebur; [5]): 0 | Plant response rating, Cocklebur (cocklebur; [6]): 0 | Plant response rating, Cocklebur (cocklebur; [7]): 0 | Plant response rating, Cocklebur (cocklebur; [1]): 0 | Plant response rating, Cocklebur (cocklebur; [4]): 0

O=C1NCC(c2cccc(OC(F)(F)F)c2)C1C(=O)Nc1ccccc1F (stereo not shown) [Compound 69]
Cocklebur plant response rating (cocklebur; Preemergence, 31 g ai/ha, scale 0 to 100, 0 is no effect and 100 is complete control): 0 | Plant response rating (scale of 0 to 100), Cocklebur (cocklebur; Preemergence, 250 g ai/ha): 0

O=C1NCC(c2ccc(C(F)(F)F)cc2)C1C(=O)Nc1cccc(F)c1F (stereo not shown) [Compound 80, N-(2,3-difluorophenyl)-2-oxo-4-[4-(trifluoromethyl)phenyl]-3-pyrrolidinecarboxamide]
Plant response rating, Nightshade (nightshade; 16 g ai/ha): 50 | Plant response rating, Nightshade (nightshade; 62 g ai/ha): 60 | Plant response rating, Nightshade (nightshade; 125 g ai/ha): 70 | Plant response rating, Nightshade (nightshade; 250 g ai/ha): 70

O=C1NC[C@H](c2cccc(C(F)(F)F)c2)[C@H]1C(=O)Nc1ccccc1F [Compound 204, (3R,4S)—N-(2-fluorophenyl)-2-oxo-4-[3-(trifluoromethyl)phenyl]-3-pyrrolidinecarboxamide]
Plant response rating, Monochoria (monochoria; 125 g ai/ha): 95 | Plant response rating, Monochoria (monochoria; 250 g ai/ha): 100 | Plant response rating, Monochoria (monochoria; 500 g ai/ha): 100 | Plant response rating, Nightshade (nightshade; 31 g ai/ha): 0 | Plant response rating, Nightshade (nightshade; 62 g ai/ha): 20 | Plant response rating, Nightshade (nightshade; 125 g ai/ha): 100 | Plant response rating, Nightshade (nightshade; 250 g ai/ha): 100

CN1CC(c2ccc(F)c(F)c2)C(C(=O)Nc2cccc(F)c2F)C1=O (stereo not shown) [Compound 303]
Plant response rating, Monochoria (monochoria; 62 g ai/ha): 100 | Plant response rating, Monochoria (monochoria; 125 g ai/ha): 100 | Plant response rating, Monochoria (monochoria; 250 g ai/ha): 100 | Plant response rating, Monochoria (monochoria; 500 g ai/ha): 100
